In patent US20180369268A1, “METHODS FOR IDENTIFYING INHIBITORS OF "STIMULATOR OF INTERFERON GENE"- DEPENDENT INTERFERON PRODUCTION” (ADURO BIOTECH, INC., priority 2015, published 2018):
Read-outs that look alike come from different tables or passages of the source.

How the values were obtained:
[1] = target: T1, STING in THP1 cells (HAQ allele) (Homo sapiens, UniProt Q86WV6, G230A/H232R/R293Q/R71H); experiment: THP-1 competition assay with STING agonist 2′3′-RR-(A)(A) (IRF-3 luciferase reporter); format: cell-based
T1 construct: host or cells: THP-1 dual reporter cells
T1 sequence (Q86WV6 whole entry R71H/G230A/H232R/R293Q): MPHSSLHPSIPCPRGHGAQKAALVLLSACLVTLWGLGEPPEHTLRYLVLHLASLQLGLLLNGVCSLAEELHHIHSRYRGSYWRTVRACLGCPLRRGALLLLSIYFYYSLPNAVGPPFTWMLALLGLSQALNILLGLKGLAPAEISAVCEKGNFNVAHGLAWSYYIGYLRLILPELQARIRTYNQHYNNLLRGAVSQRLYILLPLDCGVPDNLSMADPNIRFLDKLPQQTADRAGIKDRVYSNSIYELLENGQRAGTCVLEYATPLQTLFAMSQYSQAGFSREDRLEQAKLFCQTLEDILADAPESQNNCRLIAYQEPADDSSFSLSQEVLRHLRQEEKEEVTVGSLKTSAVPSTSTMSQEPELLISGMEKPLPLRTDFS
Protocol: The scaffold molecules and STING inhibitory compounds as described herein are assayed for their ability to inhibit the induction of STING dependent IFN-β production by an agonist compound in a competition assay. Relative induction of IRF-3 signaling in THP-1 cells (HAQ allele) was measured after stimulating the cells with a mix of a scaffold molecule (or any putative STING antagonist) titrated against a constant concentration of the STING agonist 2′3′-RR-(A)(A) in PB buffer (50 mM HEPES pH 7.5, 100 mM KCl, 3 mM MgCl2, 0.1 mM DTT, 85 mM sucrose, 0.2% BSA, 1 mM ATP, 0.1 mM GTP).
One day prior to performing the assay, THP-1 dual (Invivogen) reporter cells were plated at 500,000 cells/mL in 200 μL per well in a 96-well plate and differentiated overnight with 3 μg/mL phorbal myristate acetate in RPMI medium 1640 (4.5 g/L D-glucose, 2.383 g/L HEPES, 300 mg/L L-glutamine, 1.5 g/L sodium bicarbonate, 110 mg/L sodium pyruvate, 10% heat-inactivated fetal bovine serum, 1× penicillin/streptomycin, 0.1 mg/mL normocin).
On the day of the assay, the media was removed from the wells and replaced with 150 μL of fresh media. The titrations against 2′ 3′-RR-(A)(A) in a final volume of 100 μL were made as follows: two-fold dilutions (2,000 μM-3.9 μM) of the scaffold molecule into PB buffer containing 100 μM 2′3′-RR-(A)(A) for a final concentration of 50 μM 2′3′-RR-(A)(A). Compounds were tested in biological triplicate.
The cells were then stimulated with 25 μL of each titration for 30 minutes at 37° C. in a CO2 incubator. After stimulating, the cells were washed twice, first with 100 μL and then 150 μL of fresh media. After washing, 150 μL of media was added to each well and the cells were incubated for 17 hours overnight at 37° C. in a CO2 incubator.
To detect IRF-3 signaling, 50 μL of luciferase substrate (Invivogen QUANTI-Luc coelenterazine-based luminescence reagent reconstituted in 25 mL water) was added to 10 μL of supernatant from each well in a 96-well white opaque plate. Luminescence was measured using a SpectraMax M3 plate reader (Molecular Devices) and relative fold-induction was calculated as the values obtained from wells containing both the scaffold molecule and 2′3′-RR-(A)(A) divided by the values obtained from wells containing 2′3′-RR-(A)(A) alone. The average of the relative fold-induction was plotted against the log concentration of the antagonist. Agonist compounds 2′3′-RR-(G)(A) and RR-(A)(A) were run as controls in this assay (see FIGS. 2A and 2B).
The results are provided for control compounds in FIGS. 2A and 2B and scaffold molecules in FIGS. […]: 2′3′-SR-(3′OTBS-A)(2′F-A) (FIG. 3A, Comp. 6a), SR-(2′F-A)(2′OTBS-A) (FIG. 3B, Comp. 18a), RR-(2,6-DAP)(2,6-DAP) (FIG. 3C, Comp. 23), RS-(2,6-DAP)(2,6-DAP) (FIG. 3D, Comp. 23a), (6-O-propargyl-G)(G) (FIG. 3E, Comp. 25), RR-(2′F-ibG)(2′F-ibG) (FIG. 3F, Comp. 32), RR-(2′F-C)(2′F-A) (FIG. 3G, Comp. 37), RS-(2′F-C)(2′F-A) (FIG. 3H, Comp. 37a), 3′2′-RR-(ibG)(BzA) (FIG. 3I, Comp. 42), 3′2′-SS-(G)(A) (FIG. 3J, Comp. 43), dithio-3′2′-(2′OTBS-G)(3′OTBS-A) isomer 1 (FIG. 3K, Comp. 49, isomer 1), dithio-3′2′-(2′OTBS-G)(3′OTBS-A) isomer 2 (FIG. 3L, Comp. 49, isomer 2), Beta-L-SS-(A)(A) (FIG. 3M, Comp. 48), Beta-L-RS-(A)(A) (FIG. 3N, Comp. 48a), and Beta-L-RR-(A)(A) (FIG. 3O, Comp. 48b). Isomer 1 and 2 of Compound 49 are different isomers, and are each one of compound 49a, 49b, 49c or 49d.

hSTING HAQ allele = target: T2, hSTING HAQ allele (Homo sapiens, UniProt Q86WV6, G230A/H232R/R293Q); experiment: Differential scanning fluorometry (DSF) Tm shift with purified STING AA140-379; format: binding; details: read-out: hSTING Tm Shift HAQ
T2 construct: DNA encoding amino acids 140-379 (amino acid numbering corresponding to Swiss Prot Q86WV6); 6xHIS-SUMO (with TEV site) (N, cleaved yes); made in house; host or cells: Rosetta2 (DE3) E. coli
T2 sequence (Q86WV6 140-379 G230A/H232R/R293Q): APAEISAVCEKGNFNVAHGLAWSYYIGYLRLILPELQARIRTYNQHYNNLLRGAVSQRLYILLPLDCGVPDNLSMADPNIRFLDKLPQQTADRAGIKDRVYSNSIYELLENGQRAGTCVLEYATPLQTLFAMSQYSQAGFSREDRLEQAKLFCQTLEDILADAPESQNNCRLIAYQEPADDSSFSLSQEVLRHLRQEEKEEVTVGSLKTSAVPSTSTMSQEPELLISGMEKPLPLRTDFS
Text: DNA encoding amino acids 140-379 (amino acid numbering corresponding to Swiss Prot Q86WV6) was amplified from plasmids containing the full length sequence of human STING alleles via polymerase chain reaction with the following primers: forward […] (SEQ ID NO: 9) and reverse […] (SEQ ID NO: 10). STING variant alleles were assigned according to Yi, et al, (2013), PLoS One, 8(10), e77846 (DOI: 10.1371/journal.pone.0077846. PCR products were cloned into bacterial expression vector encoding a N-terminal hexa-histidine affinity tag (6×HIS) followed by a small ubiquitin-like modifier (SUMO) solubility sequence (Butt, et al, (2005) Protein expression and purification 43.1, 1-9) and tobacco etch virus protease cleavage site (TEV) using ligation independent cloning (Aslanidis, et al, (1990) Nucleic acids research, 18.20, 6069-6074).
Plasmids encoding 6×HIS-SUMO-TEV-STING amino acids 140-379 were transformed into Rosetta2 (DE3) E. coli cells (EMD Millipore) for protein expression. Cells were grown in lysogeny broth at 37° C. until a […] absorbance of 0.6 was reached. Cells were then transferred to 18° C. and protein expression was induced overnight by the addition of isopropyl β-D-1-thiogalactopyranoside to the media at a concentration of 0.25 mM. Cells were harvested by centrifugation at 6,000 times gravity for 10 minutes. Cell pellets were re-suspended on ice in a buffer containing 50 mM Tris hydrochloride (Tris-HCl) pH 7.5, 500 mM sodium chloride (NaCl), 20 mM imidazole, 10% glycerol, 1 mM tris(2-carboxyethyl)phosphine hydrochloride (TCEP) and protease inhibitor tablet (Pierce) (Buffer A). Cells were lysed using an S-450D sonifier (Emmerson industrial) on ice. Cell lysate was centrifuged at 15,000 times gravity for 30 minutes at 4° C. Soluble material was applied to nickel-nitrilotriacetic acid (Ni-NTA) coupled Sepharose CL-6B (Qiagen) for 1 hour with gentle rocking at 4° C. After transfer to a gravity flow poly-prep column (Bio-Rad), resin was washed extensively in buffer A. Protein was eluted from the column in a buffer containing 20 mM Tris-HCl pH 7.5, 150 mM NaCl, 300 mM imidazole, 10% glycerol and 0.5 mM TCEP. To remove the 6×HIS-SUMO tag eluted protein was mixed with TEV protease (Sigma) at a ratio of 1:250 (w:w) and dialyzed overnight against a buffer containing 20 mM Tris-HCl pH 7.5, 150 mM NaCl, 5 mM imidazole, 10% glycerol and 0.5 mM TCEP. TEV protease and 6×HIS-SUMO tags were depleted by the addition of Ni-NTA resin (Qiagen) to the sample, purified STING amino acids 140-379 was collected by removal of the resin using a poly-prep column STING AA140-379 was concentrated with a 10,000 Dalton molecular weight cutoff centrifuge concentrator (EMD Millipore) to a final concentration of approximately 10 mg/ml. Protein was aliquoted, flash frozen in liquid nitrogen and stored at −80° C. until use.
Differential scanning fluorometry (DSF) is a technique that measures the ability of ligands to bind to and stabilize purified proteins (Niesen, et al, (2007) Nature protocols 2.9, 2212-2221). The protein is heated in the presence of a dye that binds to and fluoresces in hydrophobic environments. The protein is thermally denatured by heating resulting in increased dye binding to the unfolded protein and fluorescence. The temperature midpoint (Tm) of a proteins denaturation is established by calculating the half maximal value of the denaturation curve. The temperature midpoint of the protein in the presence of a ligand is directly related to the affinity of the ligand for the protein and therefore its ability to stabilize the protein at higher temperatures.
DSF was performed in a 20 μL reaction comprising 20 mM Tris-HCl pH 7.5, 150 mM NaCl, 1:500 dilution of SYPRO Orange (Life Technologies), 1 mg/ml purified STING AA140-379 protein and ligand at a concentration of 1 mM. Wild type hSTING, HAQ allele hSTING and/or REF allele hSTING were used with scaffold molecules of the invention as listed in Table 2.

[2] = DSF, ligand 1 mM, 1 mg/ml STING AA140-379

Structure (SMILES) | IC50 [1] [µM] | ΔTm at 1000 µM (hSTING HAQ allele) [°C] | ΔTm at 1000 µM (hSTING HAQ allele; [2]) [°C]
CC(C)(C)[Si](C)(C)O[C@@H]1[C@@H]2OP(=O)(S)OC[C@H]3O[C@@H](n4cnc5c(N)ncnc54)[C@H](OP(=O)(S)OC[C@H]2O[C@H]1n1cnc2c(=O)[nH]c(N)nc21)[C@@H]3O[Si](C)(C)C(C)(C)C (single isomer, unassigned) [compound 49 isomer 1, dithio-3′2′-(2′OTBS-G)(3′OTBS-A) isomer 1] | 109 | – | –
CC(C)(C)[Si](C)(C)O[C@@H]1[C@@H]2OP(=O)(S)OC[C@H]3O[C@@H](n4cnc5c(N)ncnc54)[C@H](OP(=O)(S)OC[C@H]2O[C@H]1n1cnc2c(=O)[nH]c(N)nc21)[C@@H]3O[Si](C)(C)C(C)(C)C (single isomer, unassigned) [compound 49 isomer 2, dithio-3′2′-(2′OTBS-G)(3′OTBS-A) isomer 2] | 420 | – | –
CC(C)(C)[Si](C)(C)O[C@H]1[C@H]2O[P@](=O)(S)OC[C@H]3O[C@@H](n4cnc5c(N)ncnc54)[C@H](F)[C@@H]3O[P@](=O)(S)OC[C@H]1O[C@H]2n1cnc2c(N)ncnc21 [Compound 6, dithio-[RP, RP]-cyclic-[3′OTBS-A(2′,5′)p-2′F-A(3′,5′)p]] | – | 18.1 | –
CC(C)(C)[Si](C)(C)O[C@H]1[C@H]2O[P@](=O)(S)OC[C@H]3O[C@@H](n4cnc5c(N)nc(N)nc54)[C@H](O)[C@@H]3O[P@](=O)(S)OC[C@H]1O[C@H]2n1cnc2c(N)ncnc21 [Compound 12, dithio-[RP, RP]-cyclic-[A(2′,5′)p-2,6-DAP(3′,5′)p]] | – | 14.3 | –
CC(C)(C)[Si](C)(C)O[C@H]1[C@H]2O[P@@](=O)(S)OC[C@H]3O[C@@H](n4cnc5c(N)nc(N)nc54)[C@H](O)[C@@H]3O[P@](=O)(S)OC[C@H]1O[C@H]2n1cnc2c(N)ncnc21 [Compound 12a, dithio-[SP, RP]-cyclic-[A(2′,5′)p-2,6-DAP(3′,5′)p]] | – | 14.5 | –
CC(C)(C)[Si](C)(C)O[C@@H]1[C@@H]2O[P@](=O)(S)OC[C@H]3O[C@@H](n4cnc5c(N)ncnc54)[C@H](F)[C@@H]3O[P@@](=O)(S)OC[C@H]2O[C@H]1n1cnc2c(N)ncnc21 [Compound 18a, (2R,3R,3aR,5R,7aR,9R,10R,10aR,12S,14aR)-2,9-bis(6-amino-9H-purin-9-yl)-3-((tert-butyldimethylsilyl)oxy)-10-fluoro-5,12-dimercaptooctahydro-2H,7H-difuro[3,2-d:3′,2′-j][1,3,7,9]tetraoxa[2,8]diphosphacyclododecine 5,12-dioxide] | 2110 | – | –
CC(C)C(=O)Nc1nc2c(ncn2[C@@H]2O[C@@H]3CO[P@@](=O)(S)O[C@H]4[C@@H](F)[C@H](n5cnc6c(=O)[nH]c(NC(=O)C(C)C)nc65)O[C@@H]4CO[P@](=O)(S)O[C@H]3[C@H]2F)c(=O)[nH]1 [Compound 32a, N,N′-(((2R,3R,3aR,5R,7aR,9R,10R,10aR,12S,14aR)-3,10-difluoro-5,12-dimercapto-5,12-dioxidooctahydro-2H,7H-difuro[3,2-d:3′,2′-j][1,3,7,9]tetraoxa[2,8]diphosphacyclododecine-2,9-diyl)bis(6-oxo-6,9-dihydro-1H-purine-9,2-diyl))bis(2-methylpropanamide)] | – | – | 9.9
CC(C)C(=O)Nc1nc2c(ncn2[C@@H]2O[C@@H]3CO[P@](=O)(S)O[C@@H]4[C@H](O)[C@@H](CO[P@@](=O)(S)O[C@H]3[C@H]2O)O[C@H]4n2cnc3c(NC(=O)c4ccccc4)ncnc32)c(=O)[nH]1 [Compound 42a, dithio-[RP, SP]-cyclic-[ibG(3′,5′)p-BzA(2′,5′)p]] | – | – | 4.2
C#CCOc1nc(N)nc2c1ncn2[C@@H]1O[C@@H]2COP(=O)(O)O[C@H]3[C@@H](O)[C@H](n4cnc5c(OCC#C)nc(N)nc54)O[C@@H]3COP(=O)(O)O[C@H]2[C@H]1O [compound 26, (2R,3R,3aS,7aR,9R,10R,10aS,14aR)-2,9-bis(2-amino-6-(prop-2-yn-1-yloxy)-9H-purin-9-yl)-3,5,10,12-tetrahydroxyoctahydro-2H,7H-difuro[3,2-d: 3′,2′-j][1,3,7,9]tetraoxa[2,8]diphosphacyclododecine 5,12-dioxide] | – | – | 5.4
